Measurements reported in article PMC5870190, “A three-in-one-bullet for oesophageal cancer: replication fork collapse, spindle attachment failure and enhanced radiosensitivity generated by a ruthenium(II) metallo-intercalator” (Chemical Science, 2017).

Assays:
OE21 cells = assay: Apoptosis (AnnexinV staining, karyorrhexis, cleaved caspase 3); type: cell-based, human; details: OE21, 21 μM, 24 h
Experimental: phototoxic contribution to bio-activity. Doxorubicin (Sigma) was prepared in doubly-distilled water (10 mg/mL, 17.4 mM).
[Ru(phen)2(dppz)]2+ (2 mM) was prepared in doubly-distilled water.
Sub-cellular fractionation. OE21 or OE33 cells were treated in 12 well plates, washed with cold PBS (2x2 mls) and nuclear and cytosol fractions obtained using the Nuclei EZ Lysis kit (Sigma). Briefly, cells were washed with acidified PBS (pH 2.5) to remove the membrane-bound fraction and 0.4 ml EZ lysis buffer was added. Cells were detached by scraping, collected into eppendorfs, vortexed briefly and left for 5 minutes on ice. Samples were centrifuged (500g, 5 mins) and the supernatant (cytosol fraction) aspirated. The pellet (nuclear fraction) was re-suspended in 200 µl RIPA buffer. […] Ruthenium content was determined by ICP-MS analysis as described in a recent […]
DNA fibre assay. […] CldU- and IdU-labelled tracts were visualised using a Leica DMRB microscope with a DFC360FX camera and tract length measured by ImageJ software. […]
Western blotting. […] Protein content was determined by BCA assay. […]
AnnexinV staining. […] This was incubated for 15 mins at room temperature, 400 µl binding buffer added and analysed by flow cytometry (FL1 and FL3 channels for FITC and PI respectively). […]

[1] = tested on: OE33 human oesophageal adenocarcinoma; assay: MTT assay, OE33 cells; type: cell-based
Experimental: (§1) MTT assay. OE21, FLO-1 or hSAEC1-KT cells were seeded in 96 well plates at 20,000 cells/well (for 24 h treatment) or 10,000 cells/well (for 72 h treatment) and allowed to adhere for 24 h before treatment. OE33 cells were seeded in 48 well plates at 40,000 cells/well (24 h treatment) or 20,000 cells/well (72 h treatment). Cancer cell lines were treated with chemicals dissolved in RPMI media for consistency. After incubation, 0.5 mg/ml MTT (thiazolyl blue tetrazolium bromide) dissolved in serum-free medium was added for 60 minutes and the formazan product eluted using acidified isopropanol.
(§2) The absorbance at 540 nm was quantified by plate reader (reference wavelength 650 nm). The metabolic activity of the cell population was determined as a percentage of a negative (solvent) control. […]
(§3) For the determination of mutation induction, from the untreated and each treated condition, 2x10^5 cells were plated in 10 x 100 mm dishes in selective media (regular media

[2] = tested on: FLO-1 human oesophageal adenocarcinoma; assay: MTT assay, FLO-1 cells; type: cell-based
Experimental: as §1, §2, §3

FLO-1 cells = assay: Micronuclei formation, FLO-1; type: cell-based, human; details: FLO-1, 44 μM Ru1, 24 h incubation
Experimental: Microscopy and immunofluorescence. Cells were seeded on ibidi 35 mm µ-dishes (Thistle Scientific), allowed to adhere for 24 h and treated as stated in the main text. Cell media was removed, cells washed with PBS and fixed with formaldehyde (4%, 10 mins). Cells were permeablised with Triton (0.5% in PBS, 5 mins) and washed with PBS. Samples were blocked with BSA (3% in PBS-T) for 1 h before incubation with primary antibody (either anti-α-tubulin or anti-γ H2AX, 1/500 dilution) in BSA (3% in PBS-T) for 1 h. Samples were washed 3x in PBS-T and incubated with Alexa Fluor-conjugated secondary antibodies (3% in PBS-T, 1 h, 1/250 dilution). After further washing (3x5 min PBS-T) samples were co-stained with DAPI (5 ng/ml, 2 min), fresh PBS added and visualised by confocal microscopy. Samples were visualised using a Zeiss LSM 780 or LSM 710 inverted confocal microscope and EC Plan-Neofluar 40x/1.30 Oil objectives. […]
as §3

Substance: [Ru(phen)2(tpphz)]^2+ [Ru1]
- apoptosis (OE21 cells): low levels of apoptosis
- IC50 ([1]; OE33, 24 h constant exposure): 44.5 ± 3.5 µM
- IC50 ([1]; OE33, 72 h constant exposure): 27 ± 2.8 µM
- IC50 ([2]; FLO1, 24 h constant exposure): 42 ± 8 µM
- IC50 ([2]; FLO1, 72 h constant exposure): 11.5 ± 2.1 µM
- Cells with micronuclei, Percentage (FLO-1 cells): 3.3%
